From ChEMBL document CHEMBL4376834, “Discovery of 4H-Chromen-4-one Derivatives as a New Class of Selective Rho Kinase (ROCK) Inhibitors, which Showed Potent Activity in ex Vivo Diabetic Retinopathy Models” (J Med Chem, 2019)

Key:
[1] = target: Serine/threonine-protein kinase ULK1 (Homo sapiens, UniProt O75385); experiment: Inhibition of recombinant human ULK1 (1 to 314 residues) using casein as substrate incubated for 40 mins in presence of [gamma33P]ATP by radiometric scintillation counting analysis
[2] = target: Tyrosine-protein kinase HCK (Homo sapiens, UniProt P08631); experiment: Inhibition of human HCK recombinant (230 to 497 residues) using […] as substrate after 40 mins by [gamma-33ATP] radiometric assay
[3] = target: Discoidin domain-containing receptor 2 (Homo sapiens, UniProt Q16832); experiment: Inhibition of recombinant human DDR2 S642A mutant (467 to end residues) using KKSRGDYMTMQIG as substrate after 40 mins in presence of [gamma-33ATP] by radiometric scintillation counting analysis
[4] = target: Serine/threonine-protein kinase Nek4 (Homo sapiens, UniProt P51957, P225A); experiment: Inhibition of recombinant full-length human NEK4 P225A mutant using myelin basic protein as substrate measured after 40 mins in presence of [gamma33P]ATP by radiometric scintillation counting analysis
Serine/threonine-protein kinase Nek4, sequence (P51957 whole entry P225A, the tested form may be a part): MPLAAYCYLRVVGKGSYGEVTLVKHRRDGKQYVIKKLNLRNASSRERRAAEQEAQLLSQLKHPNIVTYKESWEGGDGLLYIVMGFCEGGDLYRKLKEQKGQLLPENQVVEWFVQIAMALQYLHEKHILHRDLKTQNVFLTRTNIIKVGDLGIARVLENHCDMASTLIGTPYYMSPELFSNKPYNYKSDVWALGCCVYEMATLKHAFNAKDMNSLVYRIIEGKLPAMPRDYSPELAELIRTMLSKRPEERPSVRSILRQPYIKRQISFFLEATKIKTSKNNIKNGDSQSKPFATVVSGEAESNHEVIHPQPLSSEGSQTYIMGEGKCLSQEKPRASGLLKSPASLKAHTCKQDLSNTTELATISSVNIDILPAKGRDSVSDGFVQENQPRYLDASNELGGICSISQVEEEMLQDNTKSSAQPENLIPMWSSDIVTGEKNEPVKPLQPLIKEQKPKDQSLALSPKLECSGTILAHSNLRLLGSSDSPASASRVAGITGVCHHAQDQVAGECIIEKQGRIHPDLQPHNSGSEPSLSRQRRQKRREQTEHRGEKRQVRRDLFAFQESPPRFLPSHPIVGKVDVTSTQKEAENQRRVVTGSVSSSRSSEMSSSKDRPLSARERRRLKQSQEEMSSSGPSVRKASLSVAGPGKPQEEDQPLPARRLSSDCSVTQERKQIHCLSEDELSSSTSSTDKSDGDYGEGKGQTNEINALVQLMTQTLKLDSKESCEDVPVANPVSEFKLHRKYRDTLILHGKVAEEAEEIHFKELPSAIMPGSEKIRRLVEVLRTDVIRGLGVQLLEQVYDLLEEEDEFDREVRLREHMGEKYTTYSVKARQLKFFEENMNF

[5] = target: Serine/threonine-protein kinase PLK3 (Homo sapiens, UniProt Q9H4B4); experiment: Inhibition of recombinant human Plk3 (19 to 301 residues) using casein as substrate incubated for 40 mins in presence of [gamma33P]ATP by radiometric scintillation counting analysis
[6] = target: NUAK family SNF1-like kinase 1 (Homo sapiens, UniProt O60285); experiment: Inhibition of human recombinant ARK5 (2 to end residues) using KKKVSRSGLYRSP as substrate incubated for 40 mins in presence of [gamma-33ATP] by radiometric scintillation counting analysis
[7] = target: Serine/threonine-protein kinase NIM1 (Homo sapiens, UniProt Q8IY84); experiment: Inhibition of recombinant full length human NIM1 using KKKVSRSGLYRSP as substrate measured after 40 mins in presence of [gamma33P]ATP by radiometric scintillation counting analysis
[8] = target: Serine/threonine-protein kinase BRSK2 (Homo sapiens, UniProt Q8IWQ3); experiment: Inhibition of recombinant human BRSK2 (2 to end residues) using KKLNRTLSFAEPG substrate incubated for 40 mins in presence of [gamma-33ATP] by radiometric scintillation counting analysis
Serine/threonine-protein kinase BRSK2, sequence (Q8IWQ3 whole entry): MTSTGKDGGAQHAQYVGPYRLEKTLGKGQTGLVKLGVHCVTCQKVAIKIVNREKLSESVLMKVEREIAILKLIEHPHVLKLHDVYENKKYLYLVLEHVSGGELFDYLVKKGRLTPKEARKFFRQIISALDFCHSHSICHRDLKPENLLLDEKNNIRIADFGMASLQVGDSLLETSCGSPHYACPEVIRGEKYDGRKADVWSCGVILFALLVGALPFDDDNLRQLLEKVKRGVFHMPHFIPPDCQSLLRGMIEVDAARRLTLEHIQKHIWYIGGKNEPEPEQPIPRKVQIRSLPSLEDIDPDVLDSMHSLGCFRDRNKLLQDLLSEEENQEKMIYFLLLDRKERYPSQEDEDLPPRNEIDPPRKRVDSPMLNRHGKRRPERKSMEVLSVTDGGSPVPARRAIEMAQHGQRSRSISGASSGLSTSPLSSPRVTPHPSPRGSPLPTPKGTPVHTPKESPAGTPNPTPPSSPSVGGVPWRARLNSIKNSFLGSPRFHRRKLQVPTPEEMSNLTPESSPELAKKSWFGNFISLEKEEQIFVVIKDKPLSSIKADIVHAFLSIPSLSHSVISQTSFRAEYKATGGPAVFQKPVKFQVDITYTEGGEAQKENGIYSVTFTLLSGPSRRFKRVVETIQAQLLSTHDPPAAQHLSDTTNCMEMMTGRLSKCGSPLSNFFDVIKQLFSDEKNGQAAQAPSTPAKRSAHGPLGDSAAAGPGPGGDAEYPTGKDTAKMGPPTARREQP

[9] = target: Tyrosine-protein kinase JAK2 (Homo sapiens, UniProt O60674); experiment: Inhibition of human recombinant JAK2 (808 to end residues) using KTFCGTPEYLAPE as substrate after 40 mins by [gamma-33ATP] by radiometric scintillation counting analysis
eIF-2-alpha kinase GCN2 = eIF-2-alpha kinase GCN2 (Homo sapiens, UniProt Q9P2K8, E556G); experiment: Inhibition of recombinant full length human GCN2 E556G mutant using RSRSRSRSRSRSR as substrate after 40 mins in presence of [gamma-33ATP] by radiometric scintillation counting analysis
[10] = target: Interleukin-1 receptor-associated kinase 1 (Homo sapiens, UniProt P51617); experiment: Inhibition of human recombinant IRAK1 (194 to end residues) using myelin basic protein as substrate after 40 mins by [gamma-33ATP] by radiometric scintillation counting analysis
[11] = Inhibition of recombinant human PAK2 L150F/P225T/A339 deletion/V383I mutant (3 to end residues) using KEAKEKRQEQIAKR as substrate incubated for 40 mins in presence of [gamma33P]ATP by radiometric scintillation counting analysis
[12] = target: Fibroblast growth factor receptor 4 (Homo sapiens, UniProt P22455); experiment: Inhibition of recombinant human FGFR4 (442 to 755 residues) using poly(Glu, Tyr) 4:1 as substrate after 40 mins in presence of [gamma-33ATP] by radiometric scintillation counting analysis
[13] = target: Protein-tyrosine kinase 2-beta (Homo sapiens, UniProt Q14289); experiment: Inhibition of recombinant human full length PYK2 using poly(Glu, Tyr) 4:1 as substrate incubated for 40 mins in presence of [gamma33P]ATP by radiometric scintillation counting analysis
CDC7/Cyclin B1 = CDC7/Cyclin B1 (Homo sapiens, UniProt O00311+P14635); experiment: Inhibition of recombinant full length human CDC7/CyclinB1 using Histone H1 as substrate incubated for 120 mins in presence of [gamma-33ATP] by radiometric scintillation counting analysis; type: protein-complex assay
[14] = target: Casein kinase I isoform gamma-3 (Homo sapiens, UniProt Q9Y6M4, E302D/K91E/R174G); experiment: Inhibition of recombinant human CK1gamma3 K91E/R174G/E302D triple mutant (1 to 330 residues) using KRRRALS(p)VAS as substrate incubated for 40 mins in presence of [gamma-33ATP] by radiometric scintillation counting analysis
[15] = target: Tyrosine-protein kinase Fes/Fps (Homo sapiens, UniProt P07332); experiment: Inhibition of recombinant human FES (2 to end residues) using poly(Glu, Tyr) 4:1 as substrate after 40 mins in presence of [gamma-33ATP] by radiometric scintillation counting analysis
[16] = target: Serine/threonine-protein kinase DCLK3 (Homo sapiens, UniProt Q9C098); experiment: Inhibition of recombinant human DCAMKL3 (345 to end residues) using KKLNRTLSFAEPG as substrate after 40 mins in presence of [gamma-33ATP] by radiometric scintillation counting analysis
[17] = target: Inhibitor of nuclear factor kappa-B kinase subunit alpha (Homo sapiens, UniProt O15111); experiment: Inhibition of recombinant full length human IKKalpha using peptide substrate after 40 mins by [gamma-33ATP]by radiometric scintillation counting analysis
Inhibitor of nuclear factor kappa-B kinase subunit alpha, sequence (O15111 whole entry): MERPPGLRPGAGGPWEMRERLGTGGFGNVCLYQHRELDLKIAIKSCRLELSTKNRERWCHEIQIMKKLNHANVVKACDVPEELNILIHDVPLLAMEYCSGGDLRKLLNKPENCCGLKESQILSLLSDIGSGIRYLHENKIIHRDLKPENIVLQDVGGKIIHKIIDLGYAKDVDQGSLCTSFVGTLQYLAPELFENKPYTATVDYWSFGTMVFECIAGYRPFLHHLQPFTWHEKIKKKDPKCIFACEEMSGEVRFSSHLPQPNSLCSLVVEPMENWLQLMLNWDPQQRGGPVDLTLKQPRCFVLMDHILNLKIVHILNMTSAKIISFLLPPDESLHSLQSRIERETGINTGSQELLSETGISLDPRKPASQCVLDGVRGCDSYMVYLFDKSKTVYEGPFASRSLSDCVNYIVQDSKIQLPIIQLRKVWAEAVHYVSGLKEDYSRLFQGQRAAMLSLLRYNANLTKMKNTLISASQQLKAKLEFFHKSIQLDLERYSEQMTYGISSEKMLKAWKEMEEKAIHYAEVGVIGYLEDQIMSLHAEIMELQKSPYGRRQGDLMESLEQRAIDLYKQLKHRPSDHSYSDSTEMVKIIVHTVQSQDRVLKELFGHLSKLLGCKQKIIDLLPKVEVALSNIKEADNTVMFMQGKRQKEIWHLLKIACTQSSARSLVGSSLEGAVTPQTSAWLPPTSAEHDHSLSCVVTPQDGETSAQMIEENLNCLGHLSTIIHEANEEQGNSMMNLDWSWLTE

CDK2/Cyclin A1 = CDK2/Cyclin A1 (Homo sapiens, UniProt P24941); experiment: Inhibition of recombinant full length human CDK2/CyclinA using Histone H1 as substrate incubated for 40 mins in presence of [gamma-33ATP] by radiometric scintillation counting analysis; type: protein-complex assay
Activin receptor type-1 = Activin receptor type-1 (Homo sapiens, UniProt Q04771); experiment: Inhibition of human recombinant ALK2 (147 to end residues) using casein as substrate incubated for 40 mins in presence of [gamma-33P]ATP by radiometric scintillation counting analysis
[18] = target: Dual specificity protein kinase CLK1 (Homo sapiens, UniProt P49759); experiment: Inhibition of recombinant human CLK1 (130 to end residues) using ERMRPRKRQGSVR as substrate incubated 40 mins in presence of [gamma-33ATP] by radiometric scintillation counting analysis
Ephrin type-A receptor 3 = Ephrin type-A receptor 3 (Homo sapiens, UniProt P29320); experiment: Inhibition of recombinant human EphA3 (578 to end residues) using poly(Glu, Tyr) 4:1 as substrate measured after 40 mins in presence of [gamma33ATP] by radiometric scintillation counting analysis
[19] = target: Leucine-rich repeat serine/threonine-protein kinase 2 (Homo sapiens, UniProt Q5S007); experiment: Inhibition of recombinant human LRRK2 (970 to end residues) using RLGRDKYKTLRQI as substrate after 40 mins in presence of [gamma-33ATP] by radiometric scintillation counting analysis
Leucine-rich repeat serine/threonine-protein kinase 2, sequence (Q5S007 whole entry): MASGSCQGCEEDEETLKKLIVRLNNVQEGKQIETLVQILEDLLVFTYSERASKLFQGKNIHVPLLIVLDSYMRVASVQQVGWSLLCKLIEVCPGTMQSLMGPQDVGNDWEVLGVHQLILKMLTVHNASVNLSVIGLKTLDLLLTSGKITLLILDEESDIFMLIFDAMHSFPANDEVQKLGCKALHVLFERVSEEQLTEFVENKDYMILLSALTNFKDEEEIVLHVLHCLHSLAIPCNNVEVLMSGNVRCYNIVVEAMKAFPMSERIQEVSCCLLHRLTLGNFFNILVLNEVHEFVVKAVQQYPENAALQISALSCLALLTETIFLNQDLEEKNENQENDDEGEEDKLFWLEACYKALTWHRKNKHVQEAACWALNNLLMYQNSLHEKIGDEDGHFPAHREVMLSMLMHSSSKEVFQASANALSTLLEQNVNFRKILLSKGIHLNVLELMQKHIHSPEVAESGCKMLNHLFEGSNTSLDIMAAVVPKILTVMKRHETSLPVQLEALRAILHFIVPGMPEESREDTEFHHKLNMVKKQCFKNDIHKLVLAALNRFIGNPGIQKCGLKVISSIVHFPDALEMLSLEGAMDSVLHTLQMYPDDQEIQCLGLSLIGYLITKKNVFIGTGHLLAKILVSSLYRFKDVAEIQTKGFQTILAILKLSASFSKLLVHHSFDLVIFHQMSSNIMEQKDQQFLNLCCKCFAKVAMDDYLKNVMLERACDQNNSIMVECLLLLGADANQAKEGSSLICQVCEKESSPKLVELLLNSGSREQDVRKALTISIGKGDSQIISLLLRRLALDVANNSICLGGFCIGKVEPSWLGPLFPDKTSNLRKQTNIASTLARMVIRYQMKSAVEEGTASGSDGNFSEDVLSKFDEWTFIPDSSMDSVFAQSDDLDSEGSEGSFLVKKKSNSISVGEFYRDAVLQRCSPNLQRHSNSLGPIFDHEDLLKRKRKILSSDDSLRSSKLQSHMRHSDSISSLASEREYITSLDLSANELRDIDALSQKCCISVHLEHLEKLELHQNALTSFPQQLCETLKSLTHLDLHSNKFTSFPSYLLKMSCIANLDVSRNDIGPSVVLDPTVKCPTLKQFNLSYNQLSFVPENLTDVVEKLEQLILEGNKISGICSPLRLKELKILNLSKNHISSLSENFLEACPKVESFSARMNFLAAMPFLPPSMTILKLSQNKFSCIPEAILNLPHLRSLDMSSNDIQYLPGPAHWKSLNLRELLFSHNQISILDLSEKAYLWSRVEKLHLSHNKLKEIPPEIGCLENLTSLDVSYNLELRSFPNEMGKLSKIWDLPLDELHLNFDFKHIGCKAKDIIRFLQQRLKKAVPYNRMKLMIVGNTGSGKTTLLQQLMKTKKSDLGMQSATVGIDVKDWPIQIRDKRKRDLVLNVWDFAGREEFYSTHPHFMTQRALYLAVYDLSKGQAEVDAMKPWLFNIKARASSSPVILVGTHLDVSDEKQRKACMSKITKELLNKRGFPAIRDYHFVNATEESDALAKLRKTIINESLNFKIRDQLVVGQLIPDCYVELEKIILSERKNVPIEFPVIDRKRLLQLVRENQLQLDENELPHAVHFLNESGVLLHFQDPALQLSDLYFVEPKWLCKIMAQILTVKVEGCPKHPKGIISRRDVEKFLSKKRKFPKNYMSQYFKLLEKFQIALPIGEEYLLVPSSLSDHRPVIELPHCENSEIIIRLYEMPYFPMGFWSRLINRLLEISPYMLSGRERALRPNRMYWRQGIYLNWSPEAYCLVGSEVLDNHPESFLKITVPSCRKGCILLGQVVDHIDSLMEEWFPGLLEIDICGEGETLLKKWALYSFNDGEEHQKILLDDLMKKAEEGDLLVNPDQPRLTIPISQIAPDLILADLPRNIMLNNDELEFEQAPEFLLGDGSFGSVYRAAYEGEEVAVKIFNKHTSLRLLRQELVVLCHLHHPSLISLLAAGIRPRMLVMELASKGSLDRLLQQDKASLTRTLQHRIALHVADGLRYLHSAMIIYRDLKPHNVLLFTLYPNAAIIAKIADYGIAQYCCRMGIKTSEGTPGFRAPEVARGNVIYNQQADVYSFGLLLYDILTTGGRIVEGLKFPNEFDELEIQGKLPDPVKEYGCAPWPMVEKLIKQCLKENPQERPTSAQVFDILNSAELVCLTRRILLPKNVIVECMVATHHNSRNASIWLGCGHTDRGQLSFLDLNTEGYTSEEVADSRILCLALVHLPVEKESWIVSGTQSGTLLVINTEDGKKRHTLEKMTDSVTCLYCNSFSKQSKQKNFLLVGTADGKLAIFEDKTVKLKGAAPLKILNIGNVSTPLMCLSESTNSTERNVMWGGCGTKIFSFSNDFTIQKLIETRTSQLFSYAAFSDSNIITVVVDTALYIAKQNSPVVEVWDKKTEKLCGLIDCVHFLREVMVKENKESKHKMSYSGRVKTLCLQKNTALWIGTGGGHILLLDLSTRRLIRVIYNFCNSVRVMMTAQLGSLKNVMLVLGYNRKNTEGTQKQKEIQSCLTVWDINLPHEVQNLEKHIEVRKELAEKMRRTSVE

[20] = target: Calcium/calmodulin-dependent protein kinase type 1G (Homo sapiens, UniProt Q96NX5); experiment: Inhibition of recombinant full length human CaMK1gamma using KKLRRTLSFAEPG as substrate incubated for 40 mins in presence of [gamma-33ATP] by radiometric scintillation counting analysis

Measured: IC50

CN(C)c1ccc(C(=O)Nc2cccc(NC(=O)COc3ccc4c(=O)ccoc4c3)c2)cc1
> 10 µM: [1] | [2] | [3] | [4] | [5] | [6] | [7] | [8] | [9] | eIF-2-alpha kinase GCN2 | [10] | [11] | [12] | [13] | CDC7/Cyclin B1 | [14] | [15] | [16] | [17] | CDK2/Cyclin A1 | Activin receptor type-1 | [18] | Ephrin type-A receptor 3 | [19] | [20]
